We go through two compounds from patent US20220000871A1, “METHODS AND COMPOSITIONS FOR TREATING NEURODEGENERATIVE DISEASES USING MODULATORS OF PHOSPHOGLYCERATE KINASE 1 (PGK1) ACTIVITY” (UNIVERSITY OF IOWA RESEARCH FOUNDATION, priority 2019, published 2022).

This assay relates to MPTP-treated mice. As to the kind of experiment: MPTP mouse model. It counts as in vivo. Here is the method:
A) Schematic for experiments in panels B-K. C57BL/6 mice (8 week-old) received 4 i.p. injections of MPTP (20 mg/kg at 2 hr intervals) or vehicle on day 0. […] N=6. […] Quantification of TH protein normalized to control (C,D). N=6. E-G) Example of immunostaining of TH in SNc and striatum (E, scale bars, 500 μm SNc, 1 mm striatum). Quantification of TH-positive neurons in SNc (F) and TH intensity in the striatum (G). N=6. H,I) Dopamine (DA) content in striatum and SnC. N=6. J) Percentage of TH-positive neurons that were positive for TUNEL staining. N=6. K) Behavioral response of mice in rotarod test. Data are duration that mice remained on an accelerated rolling rod normalized to mice at day 0. N=8. Data are examples and mean±SEM. […] Statistical analysis at day 7 and day 14 was Mann-Whitney. In the figure, *p<0.05, **p<0.01.
FIG. 10. […] A) Schematic of experiments in panels B-F. C57BL/6 mice (8 week-old) received 4 i.p. injections of MPTP (20 mg/kg at 2 hr intervals) or vehicle on day 0. […] B,C) Pyruvate and ATP levels in mouse SNc. N=6. D) Mitochondrial DNA (mDNA, 16S and ND1) relative to nuclear DNA (nDNA, intron β-globin) by quantitative PCR of mouse striatum and SNc. N=3. E,F) VDAC (E) and PHB1 (F) protein levels in striatum and SNc assayed by western blot and normalized to control. N=6.
FIG. 12. […] A) Schematic for experiments in panels B-J. C57BL/6 mice (8 week-old) received 4 i.p. injections of MPTP (20 mg/kg at 2 hr intervals) or vehicle on day 0. […] B) Example of TH immunostaining in the SNc on days 7 and 14. Scale bar, 500 μm. C-F) Measurement of DOPAC in mouse striatum (C) and SNc (D) and measurement of HVA in striatum (E) and SNc (F). (N=6). G) Example of TH and TUNEL co-staining in the SNc. TH (green), TUNEL (red), and DAPI (nuclei, blue). Scale bar, 25 μm. Quantitative data are in FIG. 2J. H) Left panels are Nissl staining of neurons in the striatum. Samples were obtained 7 days after MPTP injection. Right panels show the quantification. […] Scale bar, 400 μm. N=3 per group. I,J) Behavioral response of mice in the pole test. (I) Time mice took to turn their heads from upward to downward. (J) Time mice took to climb down the pole. N=8.
MPTP was injected (i.p.) on one day at 20 mg/kg for four times at 2-hour intervals, as previously described (4). […] At the end of the drug or saline treatment, behavioral tests including rotarod test and pole test were carried out before the animals were sacrificed.
The rotarod test was carried out using an automated rotarod (E103, UGO BASILE). At a fixed speed of 15 revolutions per minute (rpm), mice were pre-trained for two consecutive days until they were able to remain on the rod for more than 60 seconds. […] The latency to fall was recorded for a maximum recording time of 600 seconds. The behavior was monitored by a video camera.
This test was carried out by leaving a pole in the cage where the mice were housed. The pole test was performed on the 14th day after MPTP injection as previously described (9). The mouse was placed in a head-upward position on top of a vertical pole (diameter 8 mm, height 55 cm) with a ball (diameter 2.5 cm) on the head of the pole. The pole was wrapped with the nylon gauze to prevent the mouse from slipping down. Each mouse was trained twice before testing. The time that the mouse took to turn his head from upward to downward (Time: Turn) and the time the mouse took to reach the floor with his forepaws (Time: Locomotion Activity) were recorded. Each mouse was tested three times with 5 min. intervals, and the average time was quantified.

Where [1] appears, read: MPTP 20 mg/kg x4, TZ 10 μg/kg daily, day 7.
[2] abbreviates: TZ begun at time of MPTP, day 7.

Take `COc1cc2nc(N3CCN(C(=O)C4CCCO4)CC3)nc(N)c2cc1OC` (stereo not shown) [TZ, terazosin]: under setting [1], the “ATP levels after MPTP” value is “prevented the fall” and the “pyruvate levels after MPTP” value is “prevented the fall”. Also, under setting [2], the “MPTP-induced defects (TH levels, TH-positive cells, TH immunostaining, dopamine, DOPAC, HVA content, TUNEL-positive TH cells)” value is reported as “attenuated all these defects” and the “motor function (rotarod, pole test)” value is listed as “prevented deficits”. Also, for the setting “TZ delayed for 7 days after MPTP, day 14”, the “MPTP-induced abnormalities (TH, dopamine, DOPAC, HVA, TUNEL)” value is recorded as “improved the abnormalities”. In addition, where the note is “delayed TZ administration, day 14”, the “motor performance (rotarod, pole test)” value is listed as “improved”.
For the compound `CCOc1ccccc1OCCN[C@H](C)Cc1ccc(OC)c(S(N)(=O)=O)c1` [tamsulosin], under “SNc, western blot, FIG. 17B”, the “tyrosine hydroxylase levels in MPTP-treated mice” value is on record as “did not rescue”.
